Measurements as given in US8796244B2, “Imidazopyridine derivatives as inhibitors of receptor tyrosine kinases” (Astex Therapeutics Ltd, priority 2008, dated 2014).
Structures can show the parent of a compound that is named as a salt.

Key:
[1] = molecular target: VEGFR2 (Homo sapiens (Human), UniProt P35968); experiment: VEGFR2 in vitro kinase inhibitory activity assay (TRF, Flt3 substrate); format: biochemical
[2] = tested on: parental wild-type Ba/F3 cells; experiment: Ba/F3 (WT) cell proliferation assay (Alamar Blue); format: cell-based; details: Mus musculus; for inhibition at 10 µM / inhibition at 3 µM / inhibition at 1 µM: BaF3, read-out: BaF3 WT prolif, % inhibition; for IC50: BaF3, 72 hours, Alamar Blue, read-out: BaF3 WT prolif
[3] = tested on: LP-1 cell line (FGF-1/Heparin induced pERK); experiment: Cell-based pERK ELISA, LP-1 cells; details: Homo sapiens; for IC50: LP-1, read-out: LP-1 pERK ELISA (μM)
[4] = tested on: Ba/F3-TEL-FGFR3 cells; experiment: Ba/F3-TEL-FGFR3 cell proliferation assay (Alamar Blue); format: cell-based; details: 72 hours, Alamar Blue; read-out: BaF3-TEL-FGFR3 prolif

Sequence of VEGFR2 (P35968 20-1356): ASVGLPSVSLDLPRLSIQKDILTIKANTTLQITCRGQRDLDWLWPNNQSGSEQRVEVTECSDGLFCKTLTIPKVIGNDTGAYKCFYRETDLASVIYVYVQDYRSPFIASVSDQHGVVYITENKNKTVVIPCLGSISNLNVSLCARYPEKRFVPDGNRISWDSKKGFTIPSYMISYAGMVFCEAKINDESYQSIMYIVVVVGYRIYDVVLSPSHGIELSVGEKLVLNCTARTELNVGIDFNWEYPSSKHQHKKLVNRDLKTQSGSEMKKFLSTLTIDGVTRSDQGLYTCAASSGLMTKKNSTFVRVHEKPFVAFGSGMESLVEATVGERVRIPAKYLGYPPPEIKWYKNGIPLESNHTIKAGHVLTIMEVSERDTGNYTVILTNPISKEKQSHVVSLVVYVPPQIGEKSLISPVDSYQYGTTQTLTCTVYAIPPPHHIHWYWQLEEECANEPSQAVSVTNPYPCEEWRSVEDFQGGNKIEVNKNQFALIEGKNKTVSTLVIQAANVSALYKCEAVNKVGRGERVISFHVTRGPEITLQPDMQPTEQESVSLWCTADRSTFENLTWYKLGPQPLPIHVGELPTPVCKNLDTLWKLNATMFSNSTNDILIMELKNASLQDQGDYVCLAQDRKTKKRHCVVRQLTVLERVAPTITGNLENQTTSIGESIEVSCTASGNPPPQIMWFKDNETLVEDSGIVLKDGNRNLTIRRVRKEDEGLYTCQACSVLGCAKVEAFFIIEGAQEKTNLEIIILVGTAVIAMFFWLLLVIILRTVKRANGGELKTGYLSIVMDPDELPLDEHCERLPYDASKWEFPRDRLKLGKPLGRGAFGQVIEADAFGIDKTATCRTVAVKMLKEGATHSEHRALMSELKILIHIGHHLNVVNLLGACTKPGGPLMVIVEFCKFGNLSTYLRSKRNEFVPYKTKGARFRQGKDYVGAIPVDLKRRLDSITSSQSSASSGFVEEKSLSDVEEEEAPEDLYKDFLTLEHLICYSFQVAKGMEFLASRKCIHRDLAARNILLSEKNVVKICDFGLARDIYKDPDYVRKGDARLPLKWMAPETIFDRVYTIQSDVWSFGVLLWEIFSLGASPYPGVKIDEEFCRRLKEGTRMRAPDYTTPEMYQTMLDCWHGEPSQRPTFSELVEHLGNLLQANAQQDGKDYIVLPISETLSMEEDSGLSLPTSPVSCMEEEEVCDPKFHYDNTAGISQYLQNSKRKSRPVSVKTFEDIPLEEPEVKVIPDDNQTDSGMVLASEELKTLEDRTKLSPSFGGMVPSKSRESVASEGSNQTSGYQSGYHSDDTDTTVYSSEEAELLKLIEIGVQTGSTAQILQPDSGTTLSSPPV

For `Cc1ccc(NC(=O)NCC(F)(F)F)cc1-c1cnc2cc(C#Cc3cncn3C)ccn12` [Compound 326], the inhibition at 0.978 µM ([1]; 1 h, at 0.978 μM, read-out: VEGFR2 % I) was 45% and the inhibition at 10 µM [2] was 18%.

For `O=C(NCC(F)(F)F)Nc1cccc(-c2cnc3cc(-c4cccnn4)ccn23)c1` [Example 9, 1-[3-(7-Pyridazin-3-ylimidazo[1,2-a]pyridin-3-yl)phenyl]-3-(2,2,2-trifluoroethyl)urea hydrochloride], the IC50 [3] was 0.14 µM, the IC50 [2] was 6400 nM and the IC50 [4] was 797 nM.

For `CC(C)N1CC(n2cc(-c3ccn4c(-c5cccc(NC(=O)NCC(F)(F)F)c5)cnc4c3)cn2)C1` [Example 32, 1-(3-{7-[1-(1-Isopropylazetidin-3-yl)-1H-pyrazol-4-yl]imidazo[1,2-a]pyridin-3-yl}phenyl)-3-(2,2,2-trifluoroethyl)-urea], the IC50 [3] was 0.014 µM, the IC50 [2] was 670 nM and the IC50 [4] was 12 nM.

`Nc1cc(Cl)cnc1-c1ccn2c(-c3cccc(NC(=O)NCC(F)(F)F)c3)cnc2c1` [Example 146, 1-{3-[7-(3-Amino-5-chloro-pyridin-2-yl)-imidazo[1,2-a]pyridin-3-yl]-phenyl}-3-(2,2,2-trifluoro-ethyl)-urea] gave an inhibition at 1 µM ([1]; 1 h, read-out: VEGFR2 % I) of 51% and an inhibition at 10 µM [2] of 1.2%.

`CNc1nc(-c2ccn3c(-c4cccc(NC(=O)NCC(F)(F)F)c4)cnc3c2)ncc1F` [Example 162] showed an inhibition at 1 µM ([1]; 1 h, read-out: VEGFR2 % I) of 59%, an IC50 [3] of 0.091 µM and an inhibition at 3 µM [2] of 37%.

`CCNc1nc(-c2ccn3c(-c4cccc(NC(=O)NCC(F)(F)F)c4)cnc3c2)ncc1F` [Example 177] was tested, and the IC50 [1] was > 1000 nM, the inhibition at 10 µM ([3]; LP-1, read-out: LP-1 pERK ELISA, % inhibition) was 47% and the inhibition at 10 µM [2] was 16%.

With `Nc1ncc(C(F)(F)F)c(-c2ccn3c(-c4cccc(NC(=O)NCC(F)(F)F)c4)cnc3c2)n1` [Example 179] the IC50 [1] was > 10000 nM and the inhibition at 1 µM [2] was 22%.

`O=C(NCC(F)(F)F)Nc1cccc(-c2cnc3cc(-c4nc(NC5CCC5)ncc4C(F)(F)F)ccn23)c1` [Example 191] was tested, and the IC50 [1] was > 30000 nM and the inhibition at 1 µM [2] was 18%.

With `O=C(NCC(F)(F)F)Nc1cccc(-c2cnc3cc(-c4ncc(C(F)(F)F)c(NC5CCC5)n4)ccn23)c1` [Example 192] the IC50 [1] was > 3000 nM and the inhibition at 3 µM [2] was 49%.

Work on `CC(C)(C)OC(=O)NC1CN(c2ccnc(-c3ccn4c(-c5cccc(NC(=O)NCC(F)(F)F)c5)cnc4c3)n2)C1` [Example 193] yielded an inhibition at 0.89 µM ([1]; 1 h, at 0.89 μM, read-out: VEGFR2 % I) of 36%, an inhibition at 3.11 µM ([1]; 1 h, at 3.11 μM, read-out: VEGFR2 % I) of 48% and an IC50 [2] of 1500 nM.

`Cc1nc(-c2ccn3c(-c4cccc(NC(=O)NCC(F)(F)F)c4)cnc3c2)cc(N(C)C)n1` [Example 198] was tested, and the inhibition at 3 µM [2] was 39% and the IC50 [4] was 270 nM.

With `Nc1cc(-c2ccn3c(-c4cccc(NC(=O)NCC(F)(F)F)c4)cnc3c2)nc(C(F)(F)F)n1` [Example 210] the inhibition at 0.1 µM ([1]; 1 h, at 0.1 μM, read-out: VEGFR2 % I) was 42% and the inhibition at 3 µM [2] was 13%.

For `CC(=O)N1CC(n2cc(-c3ccn4c(-c5cccc(NC(=O)NCC(F)(F)F)c5)cnc4c3)cn2)C1` [Example 212], the IC50 [1] was > 300 nM and the inhibition at 3 µM [2] was 10%.

`O=C(NCC(F)(F)F)Nc1cccc(-c2cnc3cc(-c4ccc(C(=O)N5CCOCC5)cn4)ccn23)c1` [Example 223] was tested, and the inhibition at 0.3 µM ([1]; 1 h, read-out: VEGFR2 % I) was 39% and the inhibition at 3 µM [2] was 45%.

`CC(C)c1nccc(-c2ccn3c(-c4cccc(NC(=O)NCC(F)(F)F)c4)cnc3c2)n1` [Example 233] gave an inhibition at 3.1 µM ([1]; 1 h, at 3.1 μM, read-out: VEGFR2 % I) of 62% and an IC50 [2] of 14.9 nM.

`Cc1nc(-c2ccn3c(-c4cccc(NC(=O)NCC(F)(F)F)c4)cnc3c2)cc(C(F)(F)F)n1` [Example 238] gave an inhibition at 0.31 µM ([1]; 1 h, at 0.31 μM, read-out: VEGFR2 % I) of 40% and an inhibition at 10 µM [2] of 41%.

`CCNC(=O)Nc1cccc(-c2cnc3cc(-c4ccnc(C(F)(F)F)n4)ccn23)c1` [Example 239] gave an inhibition at 1 µM ([1]; 1 h, read-out: VEGFR2 % I) of 49% and an inhibition at 3 µM [2] of 26%.

In the case of `Nc1nc(-c2ccn3c(-c4cccc(NC(=O)NCC(F)(F)F)c4)cnc3c2)cc(C(F)(F)F)n1` [Example 245], the inhibition at 0.3 µM ([1]; 1 h, read-out: VEGFR2 % I) is reported as 43% and the IC50 [2] is reported as 2200 nM.

`CCN(CC)CCc1nnc(-c2ccn3c(-c4cccc(NC(=O)NCC(F)(F)F)c4)cnc3c2)s1` [Example 246] showed an inhibition at 0.3 µM ([1]; 1 h, read-out: VEGFR2 % I) of 45% and an IC50 [2] of 1000 nM.
